In ChEMBL document CHEMBL3046912, “Effectiveness of 1,3-dichloropropene as an alternative to methyl bromide in rotations of tomato (Solanum lycopersicum) and cucumber (Cucumis sativus) in China” (2012):
Active and inactive are the calls of the source. The rule behind the calls is not given here.

Experiments:
Meloidogyne incognita [1] = test: Nematicidal activity against Meloidogyne incognita (root-knot nematode) in cucumber growing fields exposed to 400 kg/ha compound fumigation treatment assessed as root galling index measured 20 days after compound treatment (reference value: 8.72 root galling index); assay type: functional
Phytophthora melonis = test: Fungicidal activity against Phytophthora melonis-induced blight disease in cucumber plants at 400 kg/ha measured 20 to 60 days post compound treatment; assay type: functional, organism-based
Botrytis cinerea = test: Fungicidal activity against Botryotinia fuckeliana-induced withering in tomato plants at 400 kg/ha measured 20 to 60 days post compound treatment; assay type: functional, organism-based
Solanum lycopersicum [2] = test: Increase in plant height of Solanum lycopersicum (tomato) exposed to 400 kg/ha compound fumigation treatment measured 50 days after compound treatment (reference value: 86.2 cm); assay type: functional
Solanum lycopersicum [3] = test: Increase in crop yield in Cucumis sativus (cucumber) plants exposed to 400 kg/ha compound fumigation treatment assessed as medium fruit yield (reference value: 38.6 ton/ha); assay type: functional
Solanum lycopersicum [4] = test: Increase in crop yield in Solanum lycopersicum (tomato) plants exposed to 400 kg/ha compound fumigation treatment assessed as extra-large fruit yield (reference value: 3.8 ton/ha); assay type: functional
Capsella bursa-pastoris [5] = test: Herbicidal activity against Capsella bursa-pastoris in tomato plants fields exposed to 400 kg/ha compound fumigation treatment assessed as hand weeding time per plot (reference value: 243.3 hr/ha); assay type: functional
Digitaria sanguinalis [6] = test: Herbicidal activity against Digitaria sanguinalis (hairy crabgrass) in cucumber plants fields exposed to 400 kg/ha compound fumigation treatment assessed as hand weeding time per plot relative to untreated control; assay type: functional
Arenaria serpyllifolia [7] = test: Herbicidal activity against Arenaria serpyllifolia in tomato plants fields exposed to 400 kg/ha compound fumigation treatment assessed as hand weeding time per plot (reference value: 243.3 hr/ha); assay type: functional
Capsella bursa-pastoris [8] = test: Herbicidal activity against Capsella bursa-pastoris in tomato plants fields exposed to 400 kg/ha compound fumigation treatment assessed as hand weeding time per plot relative to untreated control; assay type: functional
Meloidogyne incognita [9] = test: Nematicidal activity against Meloidogyne incognita (root-knot nematode) in tomato growing fields exposed to 400 kg/ha compound fumigation treatment assessed as root galling index measured 20 days after compound treatment (reference value: 8.51 root galling index); assay type: functional
Digitaria sanguinalis [10] = test: Herbicidal activity against Digitaria sanguinalis (hairy crabgrass) in tomato plants fields exposed to 400 kg/ha compound fumigation treatment assessed as hand weeding time per plot relative to untreated control; assay type: functional
Cucumis sativus [11] = test: Increase in plant height of Cucumis sativus (cucumber) exposed to 400 kg/ha compound fumigation treatment measured 30 days after compound treatment (reference value: 85.6 cm); assay type: functional
Capsella bursa-pastoris [12] = test: Herbicidal activity against Capsella bursa-pastoris in cucumber plants fields exposed to 400 kg/ha compound fumigation treatment assessed as hand weeding time per plot relative to untreated control; assay type: functional
Solanum lycopersicum [13] = test: Increase in crop yield in Cucumis sativus (cucumber) plants exposed to 400 kg/ha compound fumigation treatment assessed as marketable yield fruit yield (reference value: 65.3 ton/ha); assay type: functional
Cucumis sativus [14] = test: Increase in plant height of Cucumis sativus (cucumber) exposed to 400 kg/ha compound fumigation treatment measured 50 days after compound treatment (reference value: 103.2 cm); assay type: functional
Solanum lycopersicum [15] = test: Increase in plant height of Solanum lycopersicum (tomato) exposed to 400 kg/ha compound fumigation treatment measured 30 days after compound treatment (reference value: 28.4 cm); assay type: functional
Solanum lycopersicum [16] = test: Increase in crop yield in Cucumis sativus (cucumber) plants exposed to 400 kg/ha compound fumigation treatment assessed as large fruit yield (reference value: 19.5 ton/ha); assay type: functional
Arenaria serpyllifolia [17] = test: Herbicidal activity against Arenaria serpyllifolia in cucumber plants fields exposed to 400 kg/ha compound fumigation treatment assessed as hand weeding time per plot (reference value: 258.3 hr/ha); assay type: functional
Digitaria sanguinalis [18] = test: Herbicidal activity against Digitaria sanguinalis (hairy crabgrass) in tomato plants fields exposed to 400 kg/ha compound fumigation treatment assessed as hand weeding time per plot (reference value: 243.3 hr/ha); assay type: functional
Capsella bursa-pastoris [19] = test: Herbicidal activity against Capsella bursa-pastoris in cucumber plants fields exposed to 400 kg/ha compound fumigation treatment assessed as hand weeding time per plot (reference value: 258.3 hr/ha); assay type: functional
Solanum lycopersicum [20] = test: Increase in crop yield in Solanum lycopersicum (tomato) plants exposed to 400 kg/ha compound fumigation treatment assessed as large fruit yield (reference value: 15.2 ton/ha); assay type: functional
Solanum lycopersicum [21] = test: Increase in crop yield in Solanum lycopersicum (tomato) plants exposed to 400 kg/ha compound fumigation treatment assessed as marketable yield fruit yield (reference value: 51.3 ton/ha); assay type: functional
Solanum lycopersicum [22] = test: Increase in crop yield in Solanum lycopersicum (tomato) plants exposed to 400 kg/ha compound fumigation treatment assessed as medium fruit yield (reference value: 32.3 ton/ha); assay type: functional
Digitaria sanguinalis [23] = test: Herbicidal activity against Digitaria sanguinalis (hairy crabgrass) in cucumber plants fields exposed to 400 kg/ha compound fumigation treatment assessed as hand weeding time per plot (reference value: 258.3 hr/ha); assay type: functional
Arenaria serpyllifolia [24] = test: Herbicidal activity against Arenaria serpyllifolia in cucumber plants fields exposed to 400 kg/ha compound fumigation treatment assessed as hand weeding time per plot relative to untreated control; assay type: functional
Arenaria serpyllifolia [25] = test: Herbicidal activity against Arenaria serpyllifolia in tomato plants fields exposed to 400 kg/ha compound fumigation treatment assessed as hand weeding time per plot relative to untreated control; assay type: functional
Solanum lycopersicum [26] = test: Increase in crop yield in Cucumis sativus (cucumber) plants exposed to 400 kg/ha compound fumigation treatment assessed as extra-large fruit yield (reference value: 7.2 ton/ha); assay type: functional

In the case of CBr [BROMOMETHANE], the Root_galling_index (Meloidogyne incognita [1]) is reported as 3.24, the Activity (Phytophthora melonis) is reported as “Active” and the Activity (Botrytis cinerea) is reported as “Active”. The Activity (Solanum lycopersicum [2]) was 118.7 cm, the Crop_yield (Solanum lycopersicum [3]) was 55.3 tons/ha and the Crop_yield (Solanum lycopersicum [4]) was 8.3 tons/ha. For the same molecule, the Time (Capsella bursa-pastoris [5]) was 35.2 hr/ha, the Activity (Digitaria sanguinalis [6]) was 45% and the Time (Arenaria serpyllifolia [7]) was 35.2 hr/ha. For the same molecule, the Activity (Capsella bursa-pastoris [8]) was 45%, the Root_galling_index (Meloidogyne incognita [9]) was 3.54 and the Activity (Digitaria sanguinalis [10]) was 45%. For the same molecule, the Activity (Cucumis sativus [11]) was 108.6 cm, the Activity (Capsella bursa-pastoris [12]) was 45% and the Crop_yield (Solanum lycopersicum [13]) was 101.9 tons/ha. It also gave an Activity (Cucumis sativus [14]) of 132.6 cm, an Activity (Solanum lycopersicum [15]) of 43.5 cm and a Crop_yield (Solanum lycopersicum [16]) of 32.3 tons/ha. It also gave a Time (Arenaria serpyllifolia [17]) of 41.9 hr/ha, a Time (Digitaria sanguinalis [18]) of 35.2 hr/ha and a Time (Capsella bursa-pastoris [19]) of 41.9 hr/ha. It also gave a Crop_yield (Solanum lycopersicum [20]) of 21.7 tons/ha, a Crop_yield (Solanum lycopersicum [21]) of 76.6 tons/ha and a Crop_yield (Solanum lycopersicum [22]) of 46.6 tons/ha. It also gave a Time (Digitaria sanguinalis [23]) of 41.9 hr/ha, an Activity (Arenaria serpyllifolia [24]) of 45% and an Activity (Arenaria serpyllifolia [25]) of 45%. For the same molecule, the Crop_yield (Solanum lycopersicum [26]) was 14.3 tons/ha.
